Values joined by “and” are separate entries in the source; they are usually repeats but may differ in a detail not shown here. Identical values can stand only once. “Also recorded” adds a separate entry of the source.
What was measured:
HRPC patients [1] = assay: Combination therapy by dose of estramustine phosphate, Example 3; assay type: in vivo, human
PBMCs [2] = assay: Immunosuppression during combination therapy, Example 2; details: half dose (280 mg/day) with the peptide
PBMCs [3] = assay: Monitoring of estramustine-induced immunosuppression (IFN-γ production of PBMCs to PHA, EBV-peptide and vaccinated peptides), Example 1
HRPC patients [4] = details: phase III study; cited from earlier work
[5] = tested on: peptide-specific CTL precursors in PBMCs; assay: Peptide-specific CTL precursor assay (IFN-γ production of peptide-stimulated PBMCs), Example 1; assay type: cell-based, human; set-up: key to Cellular response to peptide during the combination therapy, 12th / Cellular response to peptide during the combination therapy, 6th / Cellular response to peptide during the combination therapy, Pre: Ar: p* ≦ 0.1 and 500 ≦ net**; A: p ≦ 0.05 and 50 ≦ net; B: p ≦ 0.05 and 25 ≦ net < 50; C: 0.05 < p < 0.1 and 50 ≦ net; AAAA: all four wells of quadruplicate assay were positive; AAA: three wells of quadruplicate assay were positive; AA: two wells of quadruplicate assay were positive; details: PBMCs of the individual case; for Cellular response to peptide during the combination therapy, 6th: after 6th vaccination; for Cellular response to peptide during the combination therapy, 12th: after 12th vaccination; for Cellular response to peptide during the combination therapy, 18th: after 18th vaccination; for Cellular response to peptide during the combination therapy, Pre: before combination therapy, grade of each positive well of quadruplicate IFN-γ assay;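 as to all read-outs here: PBMCs cultured with each peptide at 10 µM, restimulated at 20 µM every 3 days up to 12 days, then 18 hr with peptide-pulsed target cells, IFN-γ by ELISA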
Protocol: Before the first vaccination and 7 days after every 6th vaccination, 30 ml of peripheral blood was obtained, and PBMCs were isolated by means of Ficoll-Conray density gradient centrifugation. Peptide-specific CTL precursors in PBMCs were detected using a previously reported culture method [24]. Briefly, PBMCs (1×10^5 cells/well) were incubated with 10 μM of each peptide in U-bottom-type 96-well microculture plates (Nunc, Roskilde, Denmark) in 200 μl of culture medium. The culture medium contained 45% RPMI-1640 medium, 45% AIM-V™ medium (Invitrogen Corp., Carlsbad, Calif.), 10% FCS, 100 U/ml of interleukin-2 (IL-2) and 0.1 mM MEM nonessential amino acid solution (Invitrogen Corp.). Half of the medium was removed and replaced with the new medium containing a corresponding peptide (20 μM) every 3 days for up to 12 days. […] The target cells (C1R-A2402 or T2, 1×10^4/well) were pulsed with each peptide (10 μM) for 2 hr, and then effector cells (1×10^5/well) were added to each well with the final volume of 200 μl. After incubation for 18 hr, the supernatants (100 μl) were collected, and the amounts of IFN-γ were measured using an enzyme-linked immuno-sorbent assay (ELISA) (limit of sensitivity: 10 pg/ml). All experiments were performed in the four different wells with duplicate assays. […] Peptides were chosen based upon evaluation of all 4 wells by the order shown above.
Peptide-specific CTL precursors in PBMCs were detected using a previously reported culture method [24], while an ELISA was used to detect the serum IgG levels specific for the peptides administrated, as reported previously [13-15]. […] Namely, PBMCs were harvested every 2 weeks and were cultured (10^4 cells/well) for 2 days in triplicate assays with 10 μl M of phytohemagglutinin (PHA), 10 ng/ml of Epstein-Bar virus (EBV)-derived peptide with HLA-A24 or -A2 binding motif, and 10 ng/ml of two different peptides under vaccination. After 2 days in culture, the amounts of IFN-γ in cell free supernatants were measured in triplicate assays, and viable cell numbers were also counted. To avoid biases in each assay, all the PBMCs were once cryopreserved and the four different PBMCs (two from healthy donors, one from patients PBMCs harvested 2 weeks before the latest vaccination, and one from the latest vaccination) were thawed at the same time in the morning of the experiment. The PBMCs from healthy donors were from the same donors throughout the series of immunological monitoring. Responses (IFN-γ production) to PHA, EBV-peptide, and the vaccinated peptides were considered to be mediated by resting T cells, memory T cells, and activated T cells, respectively.

peptide-specific IgG [6] = assay: ELISA of serum IgG specific for the administered peptides, Example 1; assay type: in vivo, human; set-up: key: −: absent; +: present, low titer; ++: present, high titer; details: serum of the individual case; for Anti-peptide IgG during the combination therapy, 6th: after 6th vaccination; for Anti-peptide IgG during the combination therapy, 12th: after 12th vaccination; for Anti-peptide IgG during the combination therapy, 18th: after 18th vaccination; for Anti-peptide IgG during the combination therapy, Pre: before combination therapy
[7] = tested on: peptide-specific CTL precursors in PBMCs; assay: Peptide-specific CTL precursor assay (IFN-γ production), Example 2; assay type: cell-based, human; details: for Cellular response to peptide, Pre (mean specific IFN-γ production): pre-vaccination PBMCs of the individual patient, response to HIV peptide subtracted; for Cellular response to peptide, 6th (mean specific IFN-γ production): post(6th)-vaccination PBMCs of the individual patient, * p ≦ 0.05, ** p ≦ 0.10 increased versus pre
Protocol: Before the first vaccination and 7 days after every 6th vaccination, 30 ml of peripheral blood was obtained, and PBMCs were isolated by means of Ficoll-Conray density gradient centrifugation. Peptide-specific CTL precursors in PBMCs were detected using a previously reported culture method [24]. Briefly, PBMCs (1×10^5 cells/well) were incubated with 10 μM of each peptide in U-bottom-type 96-well microculture plates (Nunc, Roskilde, Denmark) in 200 μl of culture medium. The culture medium contained 45% RPMI-1640 medium, 45% AIM-V™ medium (Invitrogen Corp., Carlsbad, Calif.), 10% FCS, 100 U/ml of interleukin-2 (IL-2) and 0.1 mM MEM nonessential amino acid solution (Invitrogen Corp.). Half of the medium was removed and replaced with the new medium containing a corresponding peptide (20 μM) every 3 days for up to 12 days. […] The target cells (C1R-A2402 or T2, 1×10^4/well) were pulsed with each peptide (10 μM) for 2 hr, and then effector cells (1×10^5/well) were added to each well with the final volume of 200 μl. After incubation for 18 hr, the supernatants (100 μl) were collected, and the amounts of IFN-γ were measured using an enzyme-linked immuno-sorbent assay (ELISA) (limit of sensitivity: 10 pg/ml). All experiments were performed in the four different wells with duplicate assays.
All patients were vaccinated with up to 4 peptides selected from the 16 candidates by pre-vaccination measurements.

peptide-specific IgG [8] = assay: ELISA of serum anti-peptide IgG, Example 2; assay type: in vivo, human; set-up: key: −: absent; +: present, low titer; ++: present, high titer; details: serum of the individual patient; for Anti-peptide IgG, Pre: pre-vaccination; for Anti-peptide IgG, 6th: after 6th vaccination
Protocol: Peptide-specific CTL precursors in PBMCs were detected using a previously reported culture method, while an ELISA was used to detect the serum IgG levels specific for the peptides administrated, as reported previously. In addition, a new monitoring method was conducted to carefully measure the estramustine-induced immunosuppression. Namely, PBMCs were harvested every 2 weeks and were cultured (10^4 cells/well) for 2 days in triplicate assays with […] of phytohemagglutinin (PHA), 10 ng/ml of Epstein-Bar virus (EBV)-derived peptide with HLA-A24 or -A2 binding motif, and 10 ng/ml of two different peptides under vaccination. After 2 days in culture, the amounts of IFN-γ in cell free supernatants were measured in triplicate assays, and viable cell numbers were also counted. To avoid biases in each assay, all the PBMCs were once cryopreserved and the four different PBMCs (two from healthy donors, one from patients PBMCs harvested 2 weeks before the latest vaccination, and one from the latest vaccination) were thawed at the same time in the morning of the experiment. The PBMCs from healthy donors were from the same donors throughout the series of immunological monitoring. Responses (IFN-γ production) to PHA, EBV-peptide, and the vaccinated peptides were considered to be mediated by resting T cells, memory T cells, and activated T cells, respectively.
Except for the following points, substantially the same approach was employed as Example 1.

[9] = estramustine 140 mg/day combined with peptide vaccination, 4 cases
[10] = estramustine 280 mg/day combined with peptide vaccination, 32 cases
[11] = estramustine 560 mg/day combined with peptide vaccination, 5 cases

Row | Compound | Cellular response to peptide during the combination therapy, 6th [5] | Cellular response to peptide during the combination therapy, Pre [5] | Anti-peptide IgG during the combination therapy, 6th (peptide-specific IgG [6]) | Anti-peptide IgG during the combination therapy, 12th (peptide-specific IgG [6]) | Anti-peptide IgG during the combination therapy, 18th (peptide-specific IgG [6]) | Anti-peptide IgG during the combination therapy, Pre (peptide-specific IgG [6]) | Cellular response to peptide, Pre (mean specific IFN-γ production) [7] | Anti-peptide IgG, Pre (peptide-specific IgG [8]) | Cellular response to peptide, 6th (mean specific IFN-γ production) [7] | Anti-peptide IgG, 6th (peptide-specific IgG [8]) | further results
1 | C[C@]12CC[C@@H]3c4ccc(OC(=O)N(CCCl)CCCl)cc4CC[C@H]3[C@@H]1CC[C@@H]2OP(=O)(O)O [estramustine phosphate, Estramustine phosphate] |  |  |  |  |  |  |  |  |  |  | Clinical Response, number of PD (HRPC patients [1]; [9]): 3; Clinical Response, number of SD (HRPC patients [1]; [9]): 1; Response, Cellular Immunity (HRPC patients [1]; [9]): 3/4; Response, Humoral Immunity (HRPC patients [1]; [9]): 4/4; Clinical Response, number of PD (HRPC patients [1]; [10]): 12PD; Clinical Response, number of PR (HRPC patients [1]; [10]): 10PR,; Clinical Response, number of SD (HRPC patients [1]; [10]): 10SD,; Response, Cellular Immunity (HRPC patients [1]; [10]): 23/31; Response, Humoral Immunity (HRPC patients [1]; [10]): 27/32; Clinical Response, number of PD (HRPC patients [1]; [11]): 5PD; Response, Cellular Immunity (HRPC patients [1]; [11]): 0/3; Response, Humoral Immunity (HRPC patients [1]; [11]): 1/2; Immunosuppression (PBMCs [2]): no significant immunosuppression in most cases; Immune suppression (PBMCs [3]; full dose (560 mg/day) with peptide vaccination, cases 2 and 3, recovered on discontinuing): severe immune suppression; Immune suppression (PBMCs [3]; half/low dose (280 mg/day) with the peptide, 8 cases tested): no significant immune suppression
2 | CC[C@]1(O)C[C@@H]2CN(CCc3c([nH]c4ccccc34)[C@@](C(=O)OC)(c3cc4c(cc3OC)N(C)[C@H]3[C@@](O)(C(=O)OC)[C@H](OC(C)=O)[C@]5(CC)C=CCN6CC[C@]43[C@@H]65)C2)C1 [vinblastine] |  |  |  |  |  |  |  |  |  |  | Rate of neutropenia, grade 2 (HRPC patients [4]): 27%; Rate of neutropenia, grade 3 (HRPC patients [4]): 18%; Rate of neutropenia, grade 4 (HRPC patients [4]): 9%
3 | AYDFLYNYL [SART 2161-169] | Ar (p* ≦ 0.1 and 500 ≦ net**) | A (p ≦ 0.05 and 50 ≦ net) | − | − | − | − | 0 pg/mL | + |  |  | Cellular response to peptide during the combination therapy, 12th [5]: B (p ≦ 0.05 and 25 ≦ net < 50) and AAC; Cellular response to peptide during the combination therapy, 18th [5]: ArA and ArArAA
4 | AYIDFEMKI [SART 3315-323] | A (p ≦ 0.05 and 50 ≦ net) |  | − and + | − | − | − and + | 47.8 pg/mL and 4 pg/mL and 0 pg/mL and 112.3 pg/mL and 44.8 pg/mL and 15 pg/mL | − (4×) and + (2×) | 39.3 pg/ml and 12.8 pg/ml and 154** pg/ml and 26.5 pg/ml and 255 pg/ml | + (2×) and − (3×) | Cellular response to peptide during the combination therapy, 12th [5]: Ar (p* ≦ 0.1 and 500 ≦ net**); Cellular response to peptide during the combination therapy, 18th [5]: ArArArB
5 | DYLRSVLEDF [lck488-497] | ABB | C (0.05 < p < 0.1 and 50 ≦ net) and B (p ≦ 0.05 and 25 ≦ net < 50) and ArAB | − (3×) and + | − (2×) and + | + (2×) and − | − | 29.8 pg/mL and 36.5 pg/mL and 31.8 pg/mL and 30.5 pg/mL | + (3×) and − | 99 pg/mL and 26.8 pg/mL and 26.5 pg/mL and 19.8 pg/mL | − | 
6 | DYSARWNEI [SART 293-101] |  | C (0.05 < p < 0.1 and 50 ≦ net) | − | − | − | − | 22.8 pg/mL and 125 pg/mL and 57.3 pg/mL | + (2×) and − | 376.8 pg/ml and 162.5 pg/ml and 228.5** pg/ml | + and − (2×) | 
7 | HYTNASDGL [lck208-216] | AA | A (p ≦ 0.05 and 50 ≦ net) | − | − | − and + | − | 34.8 pg/mL and 5.8 pg/mL and 26.3 pg/mL | − (2×) and + | 0 pg/mL and 676 pg/mL and 58.8 pg/mL | − | 
8 | LYCESVHNF [PAP213] |  |  |  |  |  |  | 0 pg/ml (3×) and 30.8 pg/ml and 5.8 pg/ml and 375 pg/ml and 250 pg/ml and 28.8 pg/ml and 80 pg/ml and 14.3 pg/ml and 33.8 pg/ml | + (6×) and − (5×) | 46.8 pg/ml and 850* pg/ml and 0 pg/ml and 186.8** pg/ml and 36.5 pg/ml and 153.5 pg/ml and 622.3* pg/ml and 9.5 pg/ml and 324.3** pg/ml and 32 pg/ml and 392.3* pg/ml | ++ and + (5×) and − (4×) | 
9 | TFDYLRSVL [lck486] |  |  |  |  |  |  | 375 pg/mL | − | 58.5 pg/mL | + | 
10 | TYSVSFDSL [PSM624] |  |  |  |  |  |  | 100 pg/mL | + | 167 pg/mL | + | 
11 | VYDYNCHVDL [SART 3109-118] | ArA and ArArArA | ArAA and ArArArA | ++ and + and − | ++ and − | ++ and + | + and − (2×) | 14.3 pg/ml and 26 pg/ml and 12.3 pg/ml and 5.3 pg/ml and 5.5 pg/ml and 0 pg/ml (2×) and 625 pg/ml and 35.8 pg/ml and 30.3 pg/ml and 25.3 pg/ml and 2.8 pg/ml | + (11×) and − | 25 pg/ml and 27.3 pg/ml and 534** pg/ml and 170.8 pg/ml and 750** pg/ml and 610.8* pg/ml and 250 pg/ml and 496 pg/ml and 22.3 pg/ml and 0 pg/ml and 681.8 pg/ml | + (8×) and ++ and − | Cellular response to peptide during the combination therapy, 12th [5]: B (p ≦ 0.05 and 25 ≦ net < 50); also recorded: ArArArA; Cellular response to peptide during the combination therapy, 18th [5]: ArArAA

From patent US7718614B2 (Kurume University, priority 2003, dated 2010)
